US20120115801A1, “METHOD FOR OBTAINING A STABLE DISPERSION OF BENZOYL PEROXIDE” (Dow Pharmaceutical Sciences, Inc., priority 2008, published 2012)

What was measured:
[1] = visual inspection of the benzoyl peroxide suspension and wet-milling (Gaulin Mill) to a micro-suspension; settings: for stability of micro-suspension after wet-milling: Gaulin Mill, no surfactants
Protocol: A suspension was prepared containing 33.2% w/w hydrous benzoyl peroxide utilizing a dispersing fluid containing 34.0% w/w propylene glycol and 66% w/w water. Into a 200 gallon stainless steel tank, 175 kg of purified water and 90 kg of propylene glycol were combined. The combination was agitated with a propeller mixer to form a mixture. While mixing, 132 kg of hydrous benzoyl peroxide. (74.5% benzoyl peroxide) powder was added. Mixing continued at 1024 rpm for about 20 minutes to wet and disperse the benzoyl peroxide powder and to obtain a benzoyl peroxide suspension.
The suspension was passed through a Gaulin Mill for micronization using a wet-milling method. […] The propylene glycol content was diluted upon incorporation of benzoyl peroxide suspension into the final topical dosage form to make the 6.26% benzoyl peroxide gel.
A suspension was prepared containing 24.8% w/w hydrous benzoyl peroxide utilizing a dispersing fluid containing 9.4% w/w propylene glycol and 90.6% w/w water. Into a stainless steel tank, 36 kg of purified water and 3.75 kg of propylene glycol were combined. The combination was agitated with a propeller mixer to form a mixture. While mixing, 13.12 kg of hydrous benzoyl peroxide (74.5% benzoyl peroxide) was added. Mixing continued at 1450 rpm for about 10 minutes to wet and disperse the benzoyl peroxide powder and to obtain a benzoyl peroxide suspension.
This suspension was transferred to a Gaulin Mill for micronization using a wet-milling method.
A suspension was prepared containing 24.7% benzoyl peroxide (hydrous) utilizing a dispersing fluid containing 47.6% w/w propylene glycol and 52.4% w/w water. Into a stainless steel tank, 27.5 kg of purified water and 25 kg of propylene glycol were combined. The combination was agitated with a propeller mixer to form a mixture. While mixing, 17.19 kg of hydrous benzoyl peroxide (74.5% benzoyl peroxide) was added. Mixing continued at 858 rpm for about 1 hour to wet and disperse the benzoyl peroxide powder and to obtain a benzoyl peroxide suspension.
This suspension was passed through a Gaulin Mill for micronization using a wet-milling method. […] The propylene glycol content was diluted upon combining the benzoyl peroxide suspension with the clindamycin solution to form the final pharmaceutical product.

[2] = benzoyl peroxide wettability study; format: physicochemical; settings: 1.5 g powder, agitated as in Example 1
Protocol: A benzoyl peroxide wettability study was conducted as follows. 1.5 grams of a hydrous benzoyl peroxide powder was spread on the surface of each of three test fluids contained in glass beakers having about a 5 cm diameter, containing either 30 ml of purified water (Sample A), 30 ml of a fluid composed of 5% propylene glycol and 95% purified water (Sample B), or 30 ml of a fluid composed of 50% propylene glycol and 50% purified water (Sample C). At the bottom of each beaker was a 12 mm×8 mm magnetic stir bar. Each of the fluids, with the benzoyl peroxide powder on the surface, was stirred at 1200 rpm. After 5 and 10 minutes of stirring, the samples were visually inspected for the degree of wetting of the benzoyl peroxide. Good wetting was evidenced by visual determination of little or no agglomeration and/or crusting. It was determined that the wetting of the benzoyl peroxide in Sample A was poor, with little or no visual evidence of wetting. The wetting of the benzoyl peroxide in Sample B was determined to be good, with visual evidence of wetting of a significant portion of the benzoyl peroxide powder. The wetting of the benzoyl peroxide in Sample C was determined to be very good, with visual evidence of wetting of the majority of the benzoyl peroxide powder.
The wetting study of Example 1 was repeated utilizing 1.5 grams of benzoyl peroxide powder and 30 ml of a fluid composed of 7.5% ethanol and 92.5% water. The fluid with the benzoyl peroxide powder was agitated as described in Example 1. The wetting of the benzoyl peroxide in the fluid was determined to be very good, with visual evidence of wetting of the majority, about 90%, of the benzoyl peroxide powder.
The wetting study of Example 1 was repeated utilizing 1.5 grams of benzoyl peroxide powder and 30 ml of a fluid composed of 20% polyethylene glycol (PEG 200) and 80% water. The fluid with the benzoyl peroxide powder was agitated as described in Example 1. The wetting of the benzoyl peroxide in the fluid was determined to be very good, with visual evidence of wetting of the majority, about 90%, of the benzoyl peroxide powder.

[3] = 30 ml fluid of 7.5% ethanol and 92.5% water
[4] = 30 ml fluid of 20% polyethylene glycol (PEG 200) and 80% water

For `O=C(OOC(=O)c1ccccc1)c1ccccc1` [benzoyl peroxide], the “stability of micro-suspension after wet-milling” value (“stability of micro-suspension” below) ([1]; Example 2: 33.2% w/w hydrous benzoyl peroxide in 34.0% w/w propylene glycol / 66% w/w water) was “stable”, the “appearance of suspension upon visual inspection” value ([1]; Example 2: 33.2% w/w hydrous benzoyl peroxide in 34.0% w/w propylene glycol / 66% w/w water, mixed 1024 rpm about 20 minutes) was “smooth and free of lumps” and the “stability of micro-suspension” value ([1]; Example 3: 24.8% w/w hydrous benzoyl peroxide in 9.4% w/w propylene glycol / 90.6% w/w water) was “stable”. The “appearance of suspension upon visual inspection” value ([1]; Example 3: 24.8% w/w hydrous benzoyl peroxide in 9.4% w/w propylene glycol / 90.6% w/w water, mixed 1450 rpm about 10 minutes) was “smooth and free of lumps”, the “stability of micro-suspension” value ([1]; Example 4: 24.7% benzoyl peroxide (hydrous) in 47.6% w/w propylene glycol / 52.4% w/w water) was “stable” and the “appearance of suspension upon visual observation” value ([1]; Example 4: 24.7% benzoyl peroxide (hydrous) in 47.6% w/w propylene glycol / 52.4% w/w water, mixed 858 rpm about 1 hour) was “smooth and free of lumps”. The “portion of the benzoyl peroxide powder wetted (visual evidence)” value [2, 3] was “about 90%”, the “wetting of the benzoyl peroxide in the fluid (visual)” value [2, 3] was “very good” and the “portion of the benzoyl peroxide powder wetted (visual evidence)” value [2, 4] was “about 90%”. For the same molecule, the “wetting of the benzoyl peroxide in the fluid (visual)” value [2, 4] was “very good”.
